In assay [1] the target is T1, Seed linoleate 13S-lipoxygenase-1 (Glycine max) (UniProt P08170).
T1 sequence (whole entry): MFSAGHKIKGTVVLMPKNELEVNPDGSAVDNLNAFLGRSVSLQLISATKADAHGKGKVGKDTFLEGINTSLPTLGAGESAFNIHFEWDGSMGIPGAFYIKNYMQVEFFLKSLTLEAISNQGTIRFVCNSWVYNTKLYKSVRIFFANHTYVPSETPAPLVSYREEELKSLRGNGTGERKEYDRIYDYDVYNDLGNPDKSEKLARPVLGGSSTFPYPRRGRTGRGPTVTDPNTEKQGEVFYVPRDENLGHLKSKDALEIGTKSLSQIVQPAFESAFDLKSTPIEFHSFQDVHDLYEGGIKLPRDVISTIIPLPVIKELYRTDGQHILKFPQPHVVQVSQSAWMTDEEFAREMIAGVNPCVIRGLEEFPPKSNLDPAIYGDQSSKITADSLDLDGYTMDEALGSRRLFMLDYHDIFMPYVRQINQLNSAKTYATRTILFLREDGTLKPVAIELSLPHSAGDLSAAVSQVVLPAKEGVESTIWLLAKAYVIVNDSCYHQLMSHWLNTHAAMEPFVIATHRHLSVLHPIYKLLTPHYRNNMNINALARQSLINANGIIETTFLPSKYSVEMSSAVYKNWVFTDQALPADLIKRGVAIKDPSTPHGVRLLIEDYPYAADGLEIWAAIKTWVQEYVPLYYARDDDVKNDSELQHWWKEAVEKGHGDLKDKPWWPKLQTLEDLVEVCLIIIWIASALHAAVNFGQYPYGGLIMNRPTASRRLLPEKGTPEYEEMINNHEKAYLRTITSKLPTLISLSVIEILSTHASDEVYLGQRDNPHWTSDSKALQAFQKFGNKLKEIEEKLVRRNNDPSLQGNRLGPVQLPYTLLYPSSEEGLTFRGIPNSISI
Briefly: Inhibition of soybean LOX1 at 100 uM.

Assay [2] deals with Rattus norvegicus. Briefly: Antiinflammatory activity in AKR rat assessed as inhibition of carrageenan-induced right hind paw oedema at 0.2 mmol/kg, ip coadministered with carrageenan relative to control. In kind it is functional.
Assay [3] addresses T2, Prostaglandin G/H synthase 1 (Ovis aries) (UniProt P05979).
T2 sequence (whole entry): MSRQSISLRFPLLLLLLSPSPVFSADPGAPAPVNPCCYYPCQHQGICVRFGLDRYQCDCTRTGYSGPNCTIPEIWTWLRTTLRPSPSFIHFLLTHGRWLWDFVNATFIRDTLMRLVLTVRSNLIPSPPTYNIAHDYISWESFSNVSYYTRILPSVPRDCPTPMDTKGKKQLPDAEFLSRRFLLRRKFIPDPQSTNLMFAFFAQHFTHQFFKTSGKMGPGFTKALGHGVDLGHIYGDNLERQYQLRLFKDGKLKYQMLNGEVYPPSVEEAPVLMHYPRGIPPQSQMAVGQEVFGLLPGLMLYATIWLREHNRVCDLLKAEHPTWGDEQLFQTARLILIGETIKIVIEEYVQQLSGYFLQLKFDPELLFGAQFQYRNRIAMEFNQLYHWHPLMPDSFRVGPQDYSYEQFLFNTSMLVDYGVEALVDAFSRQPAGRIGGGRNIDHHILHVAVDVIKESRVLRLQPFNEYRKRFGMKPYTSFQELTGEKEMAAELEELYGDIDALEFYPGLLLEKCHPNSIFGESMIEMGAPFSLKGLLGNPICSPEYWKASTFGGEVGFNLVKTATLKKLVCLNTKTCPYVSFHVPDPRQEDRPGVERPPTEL
Briefly: Inhibition of ovine COX1 at 200 uM by enzyme immuno assay.

For assay [4], the target named is T3, Prostaglandin G/H synthase 2 (Homo sapiens) (UniProt P35354).
T3 sequence (whole entry): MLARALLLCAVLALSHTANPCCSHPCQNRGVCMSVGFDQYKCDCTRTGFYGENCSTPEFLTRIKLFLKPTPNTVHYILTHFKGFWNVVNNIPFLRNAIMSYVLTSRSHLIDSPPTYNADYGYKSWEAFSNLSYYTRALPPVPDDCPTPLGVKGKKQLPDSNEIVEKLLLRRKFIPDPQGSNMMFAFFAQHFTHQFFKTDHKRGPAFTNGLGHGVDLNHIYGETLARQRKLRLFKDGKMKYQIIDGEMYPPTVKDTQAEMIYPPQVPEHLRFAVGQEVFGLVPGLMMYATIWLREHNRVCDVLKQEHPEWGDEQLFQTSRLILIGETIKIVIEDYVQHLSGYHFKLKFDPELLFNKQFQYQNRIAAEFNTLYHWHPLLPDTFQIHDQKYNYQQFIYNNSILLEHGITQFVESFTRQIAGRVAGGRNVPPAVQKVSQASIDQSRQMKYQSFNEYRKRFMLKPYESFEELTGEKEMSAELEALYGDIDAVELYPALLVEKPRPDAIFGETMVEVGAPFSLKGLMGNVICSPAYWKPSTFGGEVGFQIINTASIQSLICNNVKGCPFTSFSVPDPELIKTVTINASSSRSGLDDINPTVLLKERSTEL
Briefly: Inhibition of human recombinant COX2 at 200 uM by enzyme immuno assay.

Assay [5] has as its target T3, Prostaglandin G/H synthase 2 (Homo sapiens). Briefly: Inhibition of human recombinant COX2 at 20 uM by enzyme immuno assay.
Assay [6] has as its target T2, Prostaglandin G/H synthase 1 (Ovis aries). Briefly: Inhibition of ovine COX1 at 20 uM by enzyme immuno assay.

SMILES strings stand for the structures.

As for `O=C(CCN1CCOCC1)Nc1nc(C23CC4CC(CC(C4)C2)C3)cs1`, the inhibition (commonly the percentage by which the read-out fell short of the control) in assay [1] came to 8.4%. In addition, the inhibition in vivo (commonly the share of the control response that was lost under treatment) at 200 µmol/kg in assay [2] worked out at 49.2%.

Regarding `CN(C)CCC(=O)Nc1nc(C23CC4CC(CC(C4)C2)C3)cs1`, the inhibition in assay [3] came out at 25%; in assay [4] it was 8.6%; in assay [1] it was 1%. In assay [2], the inhibition in vivo at 200 µmol/kg stood at 81.5%.

As to `O=C(CN1CCCC1)Nc1nc(-c2ccccc2)cs1`, the inhibition in vivo at 200 µmol/kg in assay [2] was determined as 49.2%.

`CN(C)CC(=O)Nc1nccs1`: the inhibition in vivo at 200 µmol/kg in assay [2] worked out at 28.4%.

Regarding `Cc1csc(NC(=O)CN(C)C)n1`, the inhibition in vivo at 200 µmol/kg in assay [2] came out at 37.6%.

With `COc1ccc(-c2csc(NC(=O)CCN3CCOCC3)n2)cc1`, the inhibition in vivo at 200 µmol/kg in assay [2] came to 55.4%.

Take `O=C(CN1CCN(c2ccccc2)CC1)Nc1nccs1`: the inhibition in vivo at 200 µmol/kg in assay [2] was found to be 72.1%.

On to `O=C(CCN1CCCC1)Nc1nccs1`, for which the inhibition in vivo at 200 µmol/kg in assay [2] stood at 64.1%.

With `CN(C)CC(=O)Nc1nc(-c2ccccc2)cs1`, the inhibition in vivo at 200 µmol/kg in assay [2] is 52%.

With `COc1ccc(-c2csc(NC(=O)CN3CCCCC3)n2)cc1`, the inhibition in vivo at 200 µmol/kg in assay [2] was 53.3%.

In the case of `COc1ccc(-c2csc(NC(=O)CN(C)C)n2)cc1`, in assay [2], the inhibition in vivo at 200 µmol/kg is 35%.

Regarding `COc1ccc(-c2csc(NC(=O)CCN3CCCC3)n2)cc1`, the inhibition in vivo at 200 µmol/kg in assay [2] worked out at 56.2%.

As for `CN1CCN(CC(=O)Nc2nc(C34CC5CC(CC(C5)C3)C4)cs2)CC1`, the inhibition in vivo at 200 µmol/kg in assay [2] turned out to be 30%.

`COc1ccc(-c2csc(NC(=O)CN3CCCC3)n2)cc1`: the inhibition in vivo at 200 µmol/kg in assay [2] turned out to be 55%.

On to `O=C(CCN1CCCC1)Nc1nc(C23CC4CC(CC(C4)C2)C3)cs1`, for which, in assay [2], the inhibition in vivo at 200 µmol/kg was 36.8%.

Take `O=C(CCN1CCN(c2ccccc2)CC1)Nc1nc(C23CC4CC(CC(C4)C2)C3)cs1`: the inhibition in assay [5] stood at 17.3%; in assay [1], 39%; in assay [6], 28.6%. Besides, the inhibition in vivo at 200 µmol/kg in assay [2] is 55.9%.

For the compound `O=C(CCN1CCCC1)Nc1nc(-c2ccccc2)cs1`, the inhibition in vivo at 200 µmol/kg in assay [2] turned out to be 68.4%.

For the compound `O=C(CN1CCN(c2ccccc2)CC1)Nc1nc(C23CC4CC(CC(C4)C2)C3)cs1`, the inhibition in assay [3] is 43.6%; in assay [4], 15.8%; in assay [1], 33%. For the same compound, the inhibition in vivo at 200 µmol/kg in assay [2] worked out at 47.6%.

On to `O=C(CN1CCCC1)Nc1nc(C23CC4CC(CC(C4)C2)C3)cs1`, for which the results for the inhibition in assay [3], in assay [4] and in assay [1] were 33.6%, 12.2% and 5%, respectively. Further, the inhibition in vivo at 200 µmol/kg in assay [2] was 69.7%.

`CN(C)CC(=O)Nc1nc(C23CC4CC(CC(C4)C2)C3)cs1`: the results for the inhibition in assay [3], in assay [4] and in assay [1] were 25%, 3.6% and 26.4%, respectively. For the same compound, the inhibition in vivo at 200 µmol/kg in assay [2] was found to be 48%.

As to `O=C(CN1CCCCC1)Nc1nc(C23CC4CC(CC(C4)C2)C3)cs1`, in assay [1], the inhibition came out at 0%. The inhibition in vivo at 200 µmol/kg in assay [2] was 26.6%.

As for `O=C(CN1CCOCC1)Nc1nc(C23CC4CC(CC(C4)C2)C3)cs1`, the figures for the inhibition in assay [3], in assay [4] and in assay [1] were 27.9%, 35.3% and 0%, respectively. Besides, in assay [2], the inhibition in vivo at 200 µmol/kg was found to be 57.8%.

Values taken from ChEMBL document CHEMBL1138550, “Adamantane derivatives of thiazolyl-N-substituted amide, as possible non-steroidal anti-inflammatory agents” (2009).
